A short description of data set [1]: Oral bioavailability in Sprague-Dawley rat at 10 mg/kg measured after 24 to 48 hrs by LC-MS/MS analysis. Type of data set: ADME, organism-based. Conditions: in vivo, time 24-48 hrs.
Data set [2] is described as follows: Volume of distribution at steady state in Sprague-Dawley rat at 2.5 mg/kg, iv measured after 24 hrs by LC-MS/MS analysis. Type of data set: ADME, organism-based. To be noted: in vivo, read-out: Vdss.
Data set [3] is described as follows: Thermodynamic solubility of the compound in aqueous buffer at pH 7.4 measured after 24 hrs by UPLC analysis. To be noted: read-out: Therm_solubility. Type of data set: physicochemical.
The nature of data set [4]: Clearance in Sprague-Dawley rat at 2.5 mg/kg, iv measured after 24 hrs by LC-MS/MS analysis. Type of data set: ADME, organism-based. Conditions: in vivo.
Data set [5] is described as follows: Thermodynamic solubility of the compound in PEG400 measured after 24 hrs by UPLC analysis. It is filed as physicochemical.
For a further data set, the system named is dengue virus type 1. Briefly: Antiviral activity against DENV-1 TC974#666 infected in african green monkey Vero cells incubated for 24 hrs measured after 3 days post infection by RT-PCR analysis. Conditions: read-out: EC50. It is filed as functional, organism-based.
The nature of data set [6]: Metabolic stability in rat hepatocytes assessed as intrinsic clearance measured per million cells incubated upto 120 mins by LC-MS/MS analysis. Type of data set: ADME, cell-based, Hepatocyte. To be noted: read-out: CLH.
Data set [7] is described as follows: AUC in Sprague-Dawley rat at 10 mg/kg, po measured after 24 to 48 hrs by LC-MS/MS analysis. It is filed as ADME, organism-based. To be noted: in vivo, time 24-48 hrs.
The nature of data set [8]: Cmax in Sprague-Dawley rat at 10 mg/kg, po measured after 24 to 48 hrs by LC-MS/MS analysis. Type of data set: ADME, organism-based. To be noted: in vivo, time 24-48 hrs.
Data set [9] in a line: Metabolic stability in human liver microsomes assessed as intrinsic clearance preincubated for 5 mins followed by NADPH addition measured upto 60 mins by LC-MS/MS analysis. Type of data set: ADME, Microsome. Conditions: time < 65 min, read-out: CLH.
Data set [10] in a line: Clearance in Sprague-Dawley rat assessed as liver blood flow at 2.5 mg/kg, iv measured after 24 hrs by LC-MS/MS analysis. Conditions: in vivo. Type of data set: ADME, organism-based.
Data set [11] in a line: Elimination half life in Sprague-Dawley rat at 2.5 mg/kg, iv measured after 24 hrs by LC-MS/MS analysis. Type of data set: ADME, organism-based. To be noted: in vivo, read-out: beta t1/2 (converted).
The next data set concerns dengue virus type 3. Kind of data set: Antiviral activity against DENV-3 H87 infected in african green monkey Vero cells incubated for 24 hrs measured after 3 days post infection by RT-PCR analysis. It is filed as functional, organism-based. To be noted: Dengue virus, H87, Vero; read-out: EC50.
Data set [12] can be described thus: Metabolic stability in human hepatocytes assessed as intrinsic clearance measured per million cells incubated upto 120 mins by LC-MS/MS analysis. To be noted: read-out: CLH. Type of data set: ADME, cell-based, Hepatocyte.
The next data set deals with dengue virus type 4. Kind of data set: Antiviral activity against DENV-4 H241 infected in african green monkey Vero cells incubated for 24 hrs measured after 3 days post infection by RT-PCR analysis. It is filed as functional, organism-based.
Data set [13] in a line: Chromatographic hydrophobicity index, log D of the compound at pH 7.4 by LC/MS analysis. It is filed as physicochemical. To be noted: buffer.
The subject of the next data set is dengue virus type 2. Kind of data set: Antiviral activity against DENV-2 16681 expressing eGFP infected in african green monkey Vero cells incubated with cells for 24 hrs followed by viral infection measured after 3 days by laser microscopic analysis. It is filed as functional, organism-based. Conditions: Dengue virus, 16681, Vero.
Data set [14] in a line: Metabolic stability in mouse liver microsomes assessed as intrinsic clearance preincubated for 5 mins followed by NADPH addition measured upto 60 mins by LC-MS/MS analysis. To be noted: time < 65 min, read-out: CLH. Type of data set: ADME, Microsome. (Liver microsomes are vesicles of endoplasmic reticulum, rich in cytochrome P450 enzymes.)
The nature of data set [15]: Metabolic stability in rat liver microsomes assessed as intrinsic clearance preincubated for 5 mins followed by NADPH addition measured upto 60 mins by LC-MS/MS analysis. Type of data set: ADME, Microsome. To be noted: time < 65 min, read-out: CLH.

≈ marks a conversion by molar mass, not a printed value.

For orientation: bioavailability means dose-corrected exposure relative to a reference, in per cent. In general, clearance refers to the volume of plasma or blood freed of the substance per unit of time. What is called EC50 is the midpoint of the concentration-response curve. What is called AUC is concentration integrated over time. The Cmax is the maximum level reached in the sampled fluid or tissue. The compound `COc1cc(NC(C(=O)c2c[nH]c3cc(OC)c(C)cc23)c2ccc(Cl)cc2OC)cc(S(C)(=O)=O)c1` (stereo unspecified) yielded a bioavailability in data set [1] of 74%. In addition, the Vd in [2] worked out at 8.8 L/kg. For the same compound, the solubility thermodynamic at 24 h in [3] was found to be 1 µg/mL (≈ 1.84 µM). Further, the clearance in data set [4] was 23 mL/min/kg. Besides, the Therm_solubility in data set [5] was greater than 169000 µg/mL. The EC50 with dengue virus type 1 (Dengue virus, TC974#666, Vero) was determined as 0.97 nM; in the data set with dengue virus type 1 (vero) it was 0.9 nM. For the same compound, the hepatocyte CLint in data set [6] was 7.2 µL/min/1e6 cells. For the same compound, the AUC in data set [7] was determined as 5140 ng·h/mL. The same compound yielded a Cmax in data set [8] of 371 ng/mL. Further, the microsomal CLint in [9] is less than 8 µL/min/mg. The LBF in data set [10] amounted to 33%. In addition, in data set [11], the half-life is 4.4 h.
Regarding `COc1cc(NC(C(=O)c2c[nH]c3cc(F)ccc23)c2ccc(F)cc2OC)cc(S(C)(=O)=O)c1` (stereo unspecified), the bioavailability in data set [1] was found to be 49%. The half-maximal effective concentration (EC50) was 50 nM with dengue virus type 3; 170 nM with dengue virus type 4; 8 nM in the data set on dengue virus type 1 (Dengue virus, TC974#666, Vero). Moreover, in data set [2], the Vd was determined as 7.2 L/kg. Further, the solubility thermodynamic at 24 h in data set [3] is 2 µg/mL (≈ 4 µM). Also, the hepatocyte CLint is less than 1.9 µL/min/1e6 cells in [12] and 8.5 µL/min/1e6 cells in data set [6]. In [4], the clearance worked out at 16 mL/min/kg. This compound returned a Therm_solubility in [5] of 41000 µg/mL. For the same compound, the area under the curve (AUC) in data set [7] came to 5210 ng·h/mL. The compound also registered a maximum concentration (Cmax) in data set [8] of 418 ng/mL. The LBF in [10] is listed as 23%. In addition, the half-life in data set [11] is 5.3 h. Also, the “Chromatographic log D at pH 7.4” value in data set [13] came out at 3.23.
As for `COc1cc(NC(C(=O)c2c[nH]c3ccccc23)c2ccc(F)cc2)cc(S(C)(=O)=O)c1` (stereo unspecified), the 50% effective concentration (EC50) in the data set on dengue virus type 3 came out at 680 nM; with dengue virus type 4, 1800 nM; in the data set on dengue virus type 2 it was 9 nM; in the data set on dengue virus type 1 (Dengue virus, TC974#666, Vero), 88 nM. Also, the microsomal CLint in data set [14] was found to be 48 µL/min/mg; in data set [9], 12 µL/min/mg; in data set [15], 16 µL/min/mg.
The compound `COc1cc(NC(C(=O)c2c[nH]c3cc(OC)c(C)cc23)c2ccc(F)cc2OC)cc(S(C)(=O)=O)c1` (single isomer, unassigned; (+)) displayed a bioavailability in [1] of 31%. Further, the EC50 turned out to be 55 nM with dengue virus type 3; 110 nM in the data set on dengue virus type 4; 0.61 nM in the data set with dengue virus type 2; 40 nM with dengue virus type 1 (Dengue virus, TC974#666, Vero). Besides, the Vd in data set [2] worked out at 5.5 L/kg. The solubility thermodynamic at 24 h in data set [3] came out at 1 µg/mL (≈ 1.9 µM). The figures for the hepatocyte CLint in data set [12] and in data set [6] were 7.6 µL/min/1e6 cells and 17 µL/min/1e6 cells, respectively. The clearance in data set [4] is 14 mL/min/kg. Moreover, the Therm_solubility in [5] came to 93000 µg/mL. In data set [7], this compound had an area under the curve (AUC) of 3700 ng·h/mL. For the same compound, in [8], the Cmax was found to be 263 ng/mL. The LBF in data set [10] stood at 20%. The half-life in data set [11] is 5.1 h. In [13], the “Chromatographic log D at pH 7.4” value worked out at 3.36.
For `COc1cc(NC(C(=O)c2c[nH]c3ccccc23)c2ccc(F)cc2OC)cc(S(C)(=O)=O)c1` (single isomer, unassigned; (+)), the EC50 in the data set with dengue virus type 3 turned out to be 120 nM; in the data set on dengue virus type 4, 230 nM; in the data set on dengue virus type 2, 2 nM; in the data set on dengue virus type 1 (Dengue virus, TC974#666, Vero), 12 nM. In addition, the hepatocyte CLint in [12] came out at 7 µL/min/1e6 cells. The microsomal CLint worked out at 27 µL/min/mg in data set [14], 9 µL/min/mg in data set [9] and 15 µL/min/mg in [15].
As to `COc1cc(NC(C(=O)c2c[nH]c3ccccc23)c2ccc(F)cc2OC)cc(OCCO)c1` (single isomer, unassigned; (+)), the EC50 was 210 nM in the data set with dengue virus type 3; 760 nM in the data set on dengue virus type 4; 9 nM with dengue virus type 2; 40 nM with dengue virus type 1 (Dengue virus, TC974#666, Vero). In addition, the microsomal CLint in data set [14] is 190 µL/min/mg; in [9], 8 µL/min/mg; in [15], 24 µL/min/mg.

The record behind these values is ChEMBL document CHEMBL5518227, “Discovery of JNJ-1802, a First-in-Class Pan-Serotype Dengue Virus NS4B Inhibitor” (J Med Chem, 2024).
